Measured values reported in patent publication US6303618A, “Cyclin dependent kinase inhibiting purine derivatives” (priority 1997, dated 2001).
Read-outs that look alike come from different tables or passages of the source.

How the values were obtained:
Cytotoxicity = format: cell-based
CDK1 (p34 cdc2)/cyclin B = test: CDK inhibition assay (histone H1 kinase), CDK1; format: biochemical, starfish (Marthasterias glacialis)
Protocol: (§1) By way of example, however, a typical protocol is summarised below.
Histone H1 (type III-S (Sigma) 4° C.) 5 mg/ml in buffer C.
[^32 P]ATP […]: Make up using (multiples of) the following proportions:
DMSO cannot exceed 1% in the assay mixture. Inhibitors are added at 1/10 final assay volume and 10×final strength. DMSO stocks must therefore be diluted to 10×final desired concentration in ≤10% DMSO, ≥90% buffer C.
Start reaction in each tube at 30 second intervals by adding
5 ml [^32 P]ATP vortexing and placing in rack in waterbath at 30° C.
Terminate reaction after 10 min at 30 second intervals in tubes in same order by removing
25 ml reaction mix and spotting onto appropriately labelled filter, allowing to dry for 20-30 seconds and transferring to stirring 1% phosphoric acid.
Blank incubation is performed as above but without histone (add […] buffer C instead) Washing blank is […] ATP added directly to filter.

[1] = system: O^6 -methylguanine DNA-methyltransferase (MGMT)
CDK4 [2] = biological target: T1, CDK4 (Homo sapiens, UniProt P11802); test: CDK inhibition assay, CDK4; format: biochemical; conditions: Table 1
T1 sequence (P11802 whole entry, species assumed): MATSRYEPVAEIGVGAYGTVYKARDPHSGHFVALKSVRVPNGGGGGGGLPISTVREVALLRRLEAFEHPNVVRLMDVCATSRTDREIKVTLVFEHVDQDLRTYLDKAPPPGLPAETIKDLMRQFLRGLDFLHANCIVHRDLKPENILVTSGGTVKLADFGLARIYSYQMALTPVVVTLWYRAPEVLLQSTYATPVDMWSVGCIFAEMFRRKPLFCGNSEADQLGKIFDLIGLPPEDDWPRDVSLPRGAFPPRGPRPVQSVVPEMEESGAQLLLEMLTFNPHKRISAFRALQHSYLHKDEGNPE
T1 sequence (P24385 whole entry partner, species assumed): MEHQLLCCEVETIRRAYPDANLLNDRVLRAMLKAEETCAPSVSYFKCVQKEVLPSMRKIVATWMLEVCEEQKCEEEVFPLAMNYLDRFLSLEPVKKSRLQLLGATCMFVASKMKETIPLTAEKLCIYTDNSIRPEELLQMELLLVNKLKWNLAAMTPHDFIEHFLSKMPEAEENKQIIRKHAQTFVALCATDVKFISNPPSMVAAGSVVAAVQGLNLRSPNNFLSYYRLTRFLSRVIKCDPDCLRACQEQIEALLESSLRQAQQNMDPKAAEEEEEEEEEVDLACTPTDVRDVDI
Text: (§2) Apart from reference compounds, the compounds listed are accompanied by an NU reference or identification code number.
as §1

[3] = Insolubility noted in the CDK assay
CDK2 = CDK2 (Homo sapiens, UniProt P24941); test: CDK inhibition assay, CDK2; format: biochemical; conditions: for IC50: CDK2, Table 1, read-out: IC50 CDK2; for inhibition at 100 µM: read-out: % inhibition CDK2, at 100 μM
Text: as §2, §1

CDK6 = conditions: in words; cited from earlier work
[4] = system: many common kinases other than CDK's; conditions: in words; cited from earlier work
CDK = conditions: in words; cited from earlier work
CDK4 [5] = biological target: T1, CDK4; conditions: in words; cited from earlier work
[6] = read-out: % inhibition CDK2, at 10 μM
[7] = at 10 μM, read-out: % inhibition CDK2

Row | SMILES | IC50 (CDK4 [2]; CDK4, read-out: IC50 CDK4) | insolubility in CDK2 assay ([3]; at 100 μM) | inhibition at 10 µM (CDK2; [6]) | % inhibition CDK1 (CDK1 (p34 cdc2)/cyclin B; at 10 μM) | other results
1 | Nc1nc(OCC2CCCCC2)c2nc[nH]c2n1 [NU2058, O^6 -Cyclohexylmethylguanine] | – | – | – | – | cytotoxicity (Cytotoxicity): cytotoxic; inhibitory activity against CDK1(cdc2)/cyclin B complexes (CDK1 (p34 cdc2)/cyclin B; in words, compared with olomoucine): very high inhibitory activity, comparable to that of olomoucine; activity as MGMT inhibitor [1]: very little activity; IC50 (CDK4 [2]; IC50 CDK4, CDK4): 38 µM
2 | C=C(C)[C@@H]1CC=C(COc2nc(N)nc3[nH]cnc23)CC1 [NU2077] | > 100 µM | insol | 16 ± 26% | – | IC50 (CDK1 (p34 cdc2)/cyclin B; CDK1, Table 1): 22 µM; inhibition at 25 µM (CDK2; read-out: % inhibition CDK2, at 25 μM): 54%
3 | Nc1nc(OCC23CC4CC(CC(C4)C2)C3)c2[nH]cnc2n1 [NU6014, 2-amino-6-adamantyl-methyloxypurine] | > 100 µM | Insol | 20 ± 4% | – | –
4 | Nc1nc(OCc2ccc3ccccc3c2)c2nc[nH]c2n1 [NU6018, 2-amino-6-(2-naphthyl)-methyloxypurine] | > 100 µM | Insol | 9 ± 9% | 12 ± 4% | –
5 | Nc1nc(OCc2cccc3ccccc23)c2nc[nH]c2n1 [NU6020, 2-amino-6-(1-naphthyl)-methyloxypurine] | > 100 µM | Insol | 3 ± 4% | 10 ± 4% | –
6 | Nc1nc(OCCC2CCCCC2)c2[nH]cnc2n1 [NU6023, 2-amino-6-cyclohexylethyloxypurine] | 69 µM | – | – | – | % inhibition CDK1 (CDK1 (p34 cdc2)/cyclin B; at 100 μM): 68 ± 6%; IC50 (CDK2): 47.6 µM; inhibition at 100 µM (CDK2): 58 ± 6%
7 | Nc1nc(N)c(N=O)c(OCC2CCCCC2)n1 [NU6027, 2,6-diamino-4-cyclohexyl-methyloxy-5-nitroso-pyrimidine] | – | Insol | – | – | –
8 | Nc1nc(OC[C@@H]2CCC(=O)N2)c2nc[nH]c2n1 [NU6031, 2-amino-6-[(S)-2'-oxopyrrolidin-5'-methyl]oxypurine] | > 1000 µM | – | – | – | % inhibition CDK1 (CDK1 (p34 cdc2)/cyclin B; at 100 μM): 26 ± 3%; IC50 (CDK2): 314 µM; inhibition at 100 µM (CDK2): 20 ± 2%
9 | Nc1nc(OC[C@H]2CCC(=O)N2)c2nc[nH]c2n1 [NU6032, 2-amino-6-[(R)-2'-oxopyrrolidin-5'-methyl]oxypurine] | > 1000 µM | – | – | – | % inhibition CDK1 (CDK1 (p34 cdc2)/cyclin B; at 100 μM): 54 ± 2%; IC50 (CDK2): 123 µM; inhibition at 100 µM (CDK2): 37 ± 2%
10 | Nc1nc(OCC2CCCCC2)c2[nH]c(=O)[nH]c2n1 [NU6033, 2-Amino-6-cyclohexylmethyloxy-8-oxopurine] | – | – | – | – | insolubility in CDK1 assay ([3]; at 10 μM): insol.
11 | Nc1cc(OCC2CCCCC2)nc(N)n1 [NU6034, 2,6-diamino-4(cyclohexylmethoxy)-pyrimidine] | – | Insol | 7 ± 3% | – | –
12 | Nc1nc(N)c(N=Nc2ccc(Cl)cc2)c(OCC2CCCCC2)n1 [NU6037] | – | Insol | – | 3 ± 3% | inhibition at 10 µM (CDK2; [7]): 6 ± 4%
13 | Nc1nc(N)c(N=O)c(OCC2CC=CCC2)n1 (centres unmarked) [NU6045] | – | Insol | 70 ± 1% | 73 ± 3% | IC50 (CDK2): 6.1 µM
14 | Clc1nc(OCC2CCCCC2)c2[nH]cnc2n1 [NU6047, 2-chloro-6-cyclohexylmethoxypurine] | – | Insol | 5 ± 3% | 6 ± 4% | insolubility in CDK1 assay ([3]; at 100 μM): Insol
15 | CN(C)c1nc(OCC2CCCCC2)c2nc[nH]c2n1 [NU6048, 2-dimethylamino-6-cyclohexyl methoxypurine] | – | Insol | – | 27 ± 6% | insolubility in CDK1 assay ([3]; at 100 μM): Insol; inhibition at 10 µM (CDK2; [7]): 31 ± 3%
16 | Cn1cnc2c(NCc3ccccc3)nc(NCCO)nc21 [Olomoucine, 2-(2-hydroxyethylamino)-6-benzylamino-9-methyl-purine] | – | – | – | – | activity against CDK6 (CDK6): neither has been found to be active; inhibitory activity in relation to many common kinases other than CDK's [4]: total lack of inhibitory activity; mode of inhibition (CDK): competitive inhibitors for ATP binding
17 | CC[C@H](CO)Nc1nc(NCc2ccccc2)c2ncn(C(C)C)c2n1 [roscovitine, 6-(benzylamino)-2(R)-[{1-(hydroxy-methyl)propyl}amino]-9-isopropylpurine] | – | – | – | – | activity against CDK4 (CDK4 [5]): neither has been found to be active; mode of inhibition (CDK): competitive inhibitors for ATP binding
